In US12371454B2, “Cyclic peptide compound having Kras inhibitory action” (priority 2019, dated 2025):
Starred links: 1 amine or outer side, 2 acyl side, 3 side chain; linkers in the order of their positions; H or OH if unused. Positions of bridges follow the written chain, without caps; N, C: chain ends. Non-standard residues stand in square brackets, D forms with d. Residues, ends and D or L forms follow the SMILES beside them. *: point of attachment. hPhe(3,5-F2-4-CF3) = N[C@@H](CCc1cc(F)c(C(F)(F)F)c(F)c1)C(=O)O; hPhe(3-Cl-4-CF3) = N[C@@H](CCc1ccc(C(F)(F)F)c(Cl)c1)C(=O)O; NMePhe(4-CF3) = CN[C@@H](Cc1ccc(C(F)(F)F)cc1)C(=O)O; NMePhe(3,4-F2) = CN[C@@H](Cc1ccc(F)c(F)c1)C(=O)O; NMePhe(4-Br) = CN[C@@H](Cc1ccc(Br)cc1)C(=O)O; NMePhe(4-Me) = CN[C@@H](Cc1ccc(C)cc1)C(=O)O; X11 = CN([C@@H](CCc1cccnc1)C(=O)[*:2])[*:1]; NMePhe(4-F) = CN[C@@H](Cc1ccc(F)cc1)C(=O)O; NMePhe(4-I) = CN[C@@H](Cc1ccc(I)cc1)C(=O)O; NMePhe(2-Me) = CN[C@@H](Cc1ccccc1C)C(=O)O; NMeNva(5,5-F2) = CN[C@@H](CCC(F)F)C(=O)O; NMeGly(cPent) = CN[C@H](C(=O)O)C1CCCC1; NMe4Pal = CN[C@@H](Cc1ccncc1)C(=O)O; NMeY = CN[C@@H](Cc1ccc(O)cc1)C(=O)O; NMeCha = CN[C@@H](CC1CCCCC1)C(=O)O; NMeChg = CN[C@H](C(=O)O)C1CCCCC1; NMeI = CC[C@H](C)[C@H](NC)C(=O)O; dNMeF = CN[C@H](Cc1ccccc1)C(=O)O; NMeD = CN[C@@H](CC(=O)O)C(=O)O; NMeL = CN[C@@H](CC(C)C)C(=O)O; NMeA = CN[C@@H](C)C(=O)O; Piperidide = C1CCN(*)CC1; Pyrrolidide = C1CCN(*)C1; Ac5c = NC1(C(=O)O)CCCC1; Aze = O=C(O)[C@@H]1CCN1; Ac4c = NC1(C(=O)O)CCC1; CF3 = FC(F)(F)*; Sar = CNCC(=O)O

Target: T1, Kras and SOS1 (biotin-tagged human Kras loaded with GDP, His-tagged human SOS1) (Homo sapiens, UniProt P01116, G12D)
T1 construct: made in house; host or cells: E. coli (stated for Kras only)
Experiment: Protein-protein interaction inhibition between Kras and SOS1 (KrasGl2D-SOS PPI) using AlphaScreen
Assay type: binding
Settings: AlphaScreen; biotin-tagged human Kras loaded with GDP, His-tagged human SOS1; read-out: KRAS G12D-SOS PPI IC50
Procedure, shortened: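 Donor beads (nickel) hold His-SOS1; acceptor beads (streptavidin) hold biotin-Kras bound to GDP. Signal measured at 520-620 nm following 680 nm excitation.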

T1 sequence (P01116 1-188 isoform P01116-2 G12D): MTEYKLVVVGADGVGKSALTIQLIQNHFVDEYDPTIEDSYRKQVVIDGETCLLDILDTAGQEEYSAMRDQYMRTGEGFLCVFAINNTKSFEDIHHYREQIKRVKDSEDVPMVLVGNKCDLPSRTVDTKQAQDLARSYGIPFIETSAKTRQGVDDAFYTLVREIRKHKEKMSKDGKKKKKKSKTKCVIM

Compound	IC50
CC[C@H](C)[C@@H]1NC(=O)[C@H](CC(C)C)N(C)C(=O)C[C@@H](C(=O)N2CCCCC2)N(C)C(=O)[C@H]([C@@H](C)CC)N(C)C(=O)C2(CCCC2)NC(=O)[C@H](Cc2ccc(F)cc2)N(C)C(=O)[C@H](CCc2ccc(C(F)(F)F)c(Cl)c2)NC(=O)CN(C)C(=O)[C@H](Cc2ccc(C)cc2)N(C)C(=O)[C@@H]2CCN2C(=O)[C@H](C)N(C)C1=O [Compound 1876] ([NMeL]I[NMeA][Aze][NMePhe(4-Me)][Sar][hPhe(3-Cl-4-CF3)][NMePhe(4-F)][Ac5c][NMeI][NMeD]-Piperidide; lactam N-11)	98 nM
CC[C@H](C)[C@@H]1NC(=O)[C@H](C)N(C)C(=O)C[C@@H](C(=O)N(C)C)N(C)C(=O)[C@H]([C@@H](C)CC)N(C)C(=O)C2(CCCC2)NC(=O)[C@H](Cc2ccc(F)c(F)c2)N(C)C(=O)[C@H](CCc2ccc(C(F)(F)F)c(Cl)c2)NC(=O)CN(C)C(=O)[C@H](Cc2ccc(C)cc2)N(C)C(=O)[C@@H]2CCN2C(=O)[C@H](C)N(C)C1=O [Compound 1878] ([NMeA]I[NMeA][Aze][NMePhe(4-Me)][Sar][hPhe(3-Cl-4-CF3)][NMePhe(3,4-F2)][Ac5c][NMeI][NMeD]-NMe2; lactam N-11)	8.8 nM
CC[C@H](C)[C@@H]1NC(=O)[C@H](CC(C)C)N(C)C(=O)C[C@@H](C(=O)N(C)C)N(C)C(=O)[C@H](C2CCCC2)N(C)C(=O)C2(CCCC2)NC(=O)[C@H](Cc2ccccc2C)N(C)C(=O)[C@H](CCc2ccc(C(F)(F)F)c(Cl)c2)NC(=O)CN(C)C(=O)[C@H](CC2CCCCC2)N(C)C(=O)[C@@H]2CCN2C(=O)[C@H](C)N(C)C1=O [Compound 1880] ([NMeL]I[NMeA][Aze][NMeCha][Sar][hPhe(3-Cl-4-CF3)][NMePhe(2-Me)][Ac5c][NMeGly(cPent)][NMeD]-NMe2; lactam N-11)	13 nM
CC[C@H](C)[C@@H]1NC(=O)[C@H](CC(C)C)N(C)C(=O)C[C@@H](C(=O)N(C)C)N(C)C(=O)[C@H]([C@@H](C)CC)N(C)C(=O)C2(CCCC2)NC(=O)[C@H](Cc2ccc(F)cc2)N(C)C(=O)[C@H](CCc2cc(F)c(C(F)(F)F)c(F)c2)NC(=O)CN(C)C(=O)[C@H](Cc2ccc(C(F)(F)F)cc2)N(C)C(=O)[C@@H]2CCN2C(=O)[C@H](C)N(C)C1=O [Compound 1882] ([NMeL]I[NMeA][Aze][NMePhe(4-CF3)][Sar][hPhe(3,5-F2-4-CF3)][NMePhe(4-F)][Ac5c][NMeI][NMeD]-NMe2; lactam N-11)	9.7 nM
CC[C@H](C)[C@@H]1NC(=O)[C@H](C)N(C)C(=O)C[C@@H](C(=O)N2CCCCC2)N(C)C(=O)[C@H]([C@@H](C)CC)N(C)C(=O)C2(CCCC2)NC(=O)[C@H](Cc2ccc(F)cc2)N(C)C(=O)[C@H](CCc2ccc(C(F)(F)F)c(Cl)c2)NC(=O)CN(C)C(=O)[C@H](Cc2ccc(C)cc2)N(C)C(=O)[C@@H]2CCN2C(=O)[C@H](C)N(C)C1=O [Compound 1885] ([NMeA]I[NMeA][Aze][NMePhe(4-Me)][Sar][hPhe(3-Cl-4-CF3)][NMePhe(4-F)][Ac5c][NMeI][NMeD]-Piperidide; lactam N-11)	32 nM
CC[C@H](C)[C@@H]1NC(=O)[C@H](CC(C)C)N(C)C(=O)C[C@@H](C(=O)N(C)C)N(C)C(=O)[C@H]([C@@H](C)CC)N(C)C(=O)C2(CCCC2)NC(=O)[C@H](CCc2cccnc2)N(C)C(=O)[C@H](CCc2ccc(C(F)(F)F)c(Cl)c2)NC(=O)CN(C)C(=O)[C@H](Cc2ccc(C)cc2)N(C)C(=O)[C@@H]2CCN2C(=O)[C@H](C)N(C)C1=O [Compound 1886] ([NMeL]I[NMeA][Aze][NMePhe(4-Me)][Sar][hPhe(3-Cl-4-CF3)][X11][Ac5c][NMeI][NMeD]-NMe2; lactam N-11)	0.93 nM
CC[C@H](C)[C@@H]1NC(=O)[C@H](C)N(C)C(=O)C[C@@H](C(=O)N2CCCCC2)N(C)C(=O)[C@H]([C@@H](C)CC)N(C)C(=O)C2(CCCC2)NC(=O)[C@@H](Cc2ccccc2)N(C)C(=O)[C@H](CCc2cc(F)c(C(F)(F)F)c(F)c2)NC(=O)CN(C)C(=O)[C@H](Cc2ccc(C)cc2)N(C)C(=O)[C@@H]2CCN2C(=O)[C@H](C)N(C)C1=O [Compound 1887] ([NMeA]I[NMeA][Aze][NMePhe(4-Me)][Sar][hPhe(3,5-F2-4-CF3)][dNMeF][Ac5c][NMeI][NMeD]-Piperidide; lactam N-11)	180 nM
CC[C@H](C)[C@@H]1NC(=O)[C@H](CC(C)C)N(C)C(=O)C[C@@H](C(=O)N(C)C)N(C)C(=O)[C@H]([C@@H](C)CC)N(C)C(=O)C2(CCCC2)NC(=O)[C@H](Cc2ccc(I)cc2)N(C)C(=O)[C@H](CCc2ccc(C(F)(F)F)c(Cl)c2)NC(=O)CN(C)C(=O)[C@H](Cc2ccc(C)cc2)N(C)C(=O)[C@@H]2CCN2C(=O)[C@H](C)N(C)C1=O [Compound 1888] ([NMeL]I[NMeA][Aze][NMePhe(4-Me)][Sar][hPhe(3-Cl-4-CF3)][NMePhe(4-I)][Ac5c][NMeI][NMeD]-NMe2; lactam N-11)	53 nM
CC[C@H](C)[C@@H]1NC(=O)[C@H](C)N(C)C(=O)C[C@@H](C(=O)N(C)C)N(C)C(=O)[C@H]([C@@H](C)CC)N(C)C(=O)C2(CCCC2)NC(=O)[C@@H](Cc2ccccc2)N(C)C(=O)[C@H](CCc2ccc(C(F)(F)F)c(Cl)c2)NC(=O)CN(C)C(=O)[C@H](Cc2ccc(C)cc2)N(C)C(=O)[C@@H]2CCN2C(=O)[C@H](C)N(C)C1=O [Compound 1889] ([NMeA]I[NMeA][Aze][NMePhe(4-Me)][Sar][hPhe(3-Cl-4-CF3)][dNMeF][Ac5c][NMeI][NMeD]-NMe2; lactam N-11)	98 nM
CC[C@H](C)[C@@H]1NC(=O)[C@H](C)N(C)C(=O)C[C@@H](C(=O)N(C)C)N(C)C(=O)[C@H]([C@@H](C)CC)N(C)C(=O)C2(CCCC2)NC(=O)[C@H](Cc2ccc(Br)cc2)N(C)C(=O)[C@H](CCc2ccc(C(F)(F)F)c(Cl)c2)NC(=O)CN(C)C(=O)[C@H](Cc2ccc(C)cc2)N(C)C(=O)[C@@H]2CCN2C(=O)[C@H](C)N(C)C1=O [Compound 1893] ([NMeA]I[NMeA][Aze][NMePhe(4-Me)][Sar][hPhe(3-Cl-4-CF3)][NMePhe(4-Br)][Ac5c][NMeI][NMeD]-NMe2; lactam N-11)	14 nM
CC[C@H](C)[C@@H]1NC(=O)[C@H](CC(C)C)N(C)C(=O)C[C@@H](C(=O)N2CCCC2)N(C)C(=O)[C@H](C2CCCCC2)N(C)C(=O)C2(CCC2)NC(=O)[C@@H]2CCCN2C(=O)[C@H](CCc2ccc(C(F)(F)F)c(Cl)c2)NC(=O)CN(C)C(=O)[C@H](CC2CCCCC2)N(C)C(=O)CN(C)C(=O)CN(C)C1=O [Compound 1894] ([NMeL]I[Sar][Sar][NMeCha][Sar][hPhe(3-Cl-4-CF3)]P[Ac4c][NMeChg][NMeD]-Pyrrolidide; lactam N-11)	0.55 nM
CC[C@H](C)[C@@H]1NC(=O)[C@H](CC(C)C)N(C)C(=O)C[C@@H](C(=O)N2CCCCC2)N(C)C(=O)[C@H]([C@@H](C)CC)N(C)C(=O)C2(CCCC2)NC(=O)[C@@H](Cc2ccccc2)N(C)C(=O)[C@H](CCc2cc(F)c(C(F)(F)F)c(F)c2)NC(=O)CN(C)C(=O)[C@H](Cc2ccc(C)cc2)N(C)C(=O)[C@@H]2CCN2C(=O)[C@H](C)N(C)C1=O [Compound 1895] ([NMeL]I[NMeA][Aze][NMePhe(4-Me)][Sar][hPhe(3,5-F2-4-CF3)][dNMeF][Ac5c][NMeI][NMeD]-Piperidide; lactam N-11)	360 nM
CC[C@H](C)[C@@H]1NC(=O)[C@H](CC(C)C)N(C)C(=O)C[C@@H](C(=O)N(C)C)N(C)C(=O)[C@H]([C@@H](C)CC)N(C)C(=O)[C@H](C(C)C)NC(=O)[C@H](Cc2ccncc2)N(C)C(=O)[C@H](CCc2ccc(C(F)(F)F)c(Cl)c2)NC(=O)CN(C)C(=O)[C@H](Cc2ccc(C)cc2)N(C)C(=O)[C@@H]2CCN2C(=O)[C@H](C)N(C)C1=O [Compound 1897] ([NMeL]I[NMeA][Aze][NMePhe(4-Me)][Sar][hPhe(3-Cl-4-CF3)][NMe4Pal]V[NMeI][NMeD]-NMe2; lactam N-11)	9.9 nM
CC[C@H](C)[C@@H]1NC(=O)[C@H](CC(C)C)N(C)C(=O)C[C@@H](C(=O)N(C)C)N(C)C(=O)[C@H]([C@@H](C)CC)N(C)C(=O)C2(CCCC2)NC(=O)[C@H](CCC(F)F)N(C)C(=O)[C@H](CCc2ccc(C(F)(F)F)c(Cl)c2)NC(=O)CN(C)C(=O)[C@H](Cc2ccc(C)cc2)N(C)C(=O)[C@@H]2CCN2C(=O)[C@H](C)N(C)C1=O [Compound 1898] ([NMeL]I[NMeA][Aze][NMePhe(4-Me)][Sar][hPhe(3-Cl-4-CF3)][NMeNva(5,5-F2)][Ac5c][NMeI][NMeD]-NMe2; lactam N-11)	0.93 nM
CC[C@H](C)[C@@H]1NC(=O)[C@H](CC(C)C)N(C)C(=O)C[C@@H](C(=O)N(C)C)N(C)C(=O)[C@H]([C@@H](C)CC)N(C)C(=O)C2(CCCC2)NC(=O)[C@H](Cc2ccc(OC(F)(F)F)cc2)N(C)C(=O)[C@H](CCc2ccc(C(F)(F)F)c(Cl)c2)NC(=O)CN(C)C(=O)[C@H](Cc2ccc(C)cc2)N(C)C(=O)[C@@H]2CCN2C(=O)[C@H](C)N(C)C1=O [Compound 1902] ([NMeL]I[NMeA][Aze][NMePhe(4-Me)][Sar][hPhe(3-Cl-4-CF3)][NMeY](CF3)[Ac5c][NMeI][NMeD]-NMe2; lactam N-11)	54 nM
CC[C@H](C)[C@@H]1NC(=O)[C@H](C)N(C)C(=O)C[C@@H](C(=O)N(C)C)N(C)C(=O)[C@H]([C@@H](C)CC)N(C)C(=O)C2(CCCC2)NC(=O)[C@H](Cc2ccc(OC)cc2)N(C)C(=O)[C@H](CCc2ccc(C(F)(F)F)c(Cl)c2)NC(=O)CN(C)C(=O)[C@H](Cc2ccc(C)cc2)N(C)C(=O)[C@@H]2CCN2C(=O)[C@H](C)N(C)C1=O [Compound 1903] ([NMeA]I[NMeA][Aze][NMePhe(4-Me)][Sar][hPhe(3-Cl-4-CF3)][NMeY](Me)[Ac5c][NMeI][NMeD]-NMe2; lactam N-11)	4 nM
CC[C@H](C)[C@@H]1NC(=O)[C@H](CC(C)C)N(C)C(=O)C[C@@H](C(=O)N(C)C)N(C)C(=O)[C@H]([C@@H](C)CC)N(C)C(=O)C2(CCCC2)NC(=O)[C@@H](Cc2ccccc2)N(C)C(=O)[C@H](CCc2ccc(C(F)(F)F)c(Cl)c2)NC(=O)CN(C)C(=O)[C@H](Cc2ccc(C)cc2)N(C)C(=O)[C@@H]2CCN2C(=O)[C@H](C)N(C)C1=O [Compound 1909] ([NMeL]I[NMeA][Aze][NMePhe(4-Me)][Sar][hPhe(3-Cl-4-CF3)][dNMeF][Ac5c][NMeI][NMeD]-NMe2; lactam N-11)	110 nM
